Source: patent publication US20240423973A1, “COMPOUNDS, PHARMACEUTICAL COMPOSITIONS, AND METHODS FOR THE TREATMENT, PREVENTION, OR MANAGEMENT OF HYPERPROLIFERATIVE DISORDERS” (VINCERX PHARMA GMBH, priority 2021, published 2024)
*1 amine or outer side, *2 acyl side, *3 side chain or, on linkers, in order; H or OH if unused. Where a SMILES comes first, the peptide text is derived from it. Bridges are numbered along the chain shown (N, C = ends). Roman numbers before positions name the chains, in order. [ ]: non-standard residue; d: D form. The star is where a group is joined. X1 = CCCNC(=O)Nc1cccc(S(=O)(=O)Nc2cccc([C@@H](CC(=O)O)NC(=O)Nc3ccc(N*)cc3)c2)c1; Camptothecin(7-Et) = CCc1c2c(nc3ccccc13)-c1cc3c(c(=O)n1C2)COC(=O)[C@@]3(CC)O*; Glutaryl = O=C(CCCC(=O)[*:2])[*:1]; PEG3 = NCCOCCOCCOCCC(=O)O; CO = O=C([*:1])[*:2]; Sar = CNCC(=O)O

Assays:
[1] = Pharmacokinetics in rat after intravenous administration; assay type: in vivo; conditions: male rats, intravenous 0.5 mg/kg bolus, plasma, non-compartmental analysis; for Vd: read-out: Vss
Description: Male rats (n=3) were given an intravenous 0.5 mg/kg bolus dose of test article dissolved in plasma with 1% DMSO and 1% ethanol (Ex A3 only). Serial blood samples were collected up to 24 hours post-dose. Plasma was harvested from blood samples and stored frozen until sample analysis. Test article plasma concentrations were analyzed by LC/MS/MS.

[2] = tested on: NCI H292; assay: Cytotoxicity in vitro in the presence and absence of elastase (MTT assay); assay type: cell-based, human; conditions: NCI H292 cells, 72 h
Description: (§1) Cultivation of cells was performed according to standard procedures with the media recommended by the provider. The cells, in a total volume of 100 μL, were seeded in a 96-well plate with a white bottom (#3610). After a 24 h incubation period at 37° C. and 5% CO2, the medium was exchanged by adding 90 μL fresh medium. The treatment started by adding the test compound in 10 μL of culture medium to the cells in triplicates. Concentrations ranging from 10^−5 M to 10^−13 M were chosen. Two identically treated sets of samples were prepared. One set was treated with the test compound alone, whereas to the second set the compound and 10 nM elastase was added followed by a 72 h incubation period at 37° C. and 5% CO2. The proliferation was detected using the MTT assay (ATCC). At the end of the incubation period the MTT reagent was added to all samples for 4h. Lysis of the cells followed by addition of the detergent was done overnight. The formed dye was detected at 570 nm. The proliferation of untreated but otherwise identically handled cells was define as the […].

[3] = tested on: HT29; assay: as above; assay type: cell-based, human; conditions: HT29 cells, 72 h
Description: as §1

[4] = tested on: 786-O; assay: as above; assay type: cell-based, human; conditions: 786-O cells, 72 h
Description: as §1

[5] = tested on: SUM149; assay: as above; assay type: cell-based; conditions: SUM149 cells, 72 h
Description: as §1

Structure (SMILES)	AUC [1] [ng·h/mL]	clearance [1] [mL/min/kg]	half-life [1] [h]	Vd [1] [L/kg]	IC50 ([2]; compound alone (no elastase)) [nM]	IC50 ([2]; with 10 nM elastase) [nM]	IC50 ([3]; compound alone (no elastase)) [nM]	IC50 ([3]; with 10 nM elastase) [nM]	IC50 ([4]; compound alone (no elastase)) [nM]	IC50 ([4]; with 10 nM elastase) [nM]	IC50 ([5]; compound alone (no elastase)) [nM]	IC50 ([5]; with 10 nM elastase) [nM]
CCCNC(=O)Nc1cccc(S(=O)(=O)Nc2cccc([C@@H](CC(=O)O)NC(=O)Nc3ccc(NC(=O)NCCOCCOCCOCCC(=O)NCCCC[C@H](NC(=O)CCOCCOCCOCCNC(=O)Nc4ccc(NC(=O)N[C@H](CC(=O)O)c5cccc(NS(=O)(=O)c6cccc(NC(=O)NCCC)c6)c5)cc4)C(=O)NCCOCCOCCOCCC(=O)N[C@@H](CC(=O)O)C(=O)N4CCC[C@H]4C(=O)N[C@H](C(=O)O[C@]4(CC)C(=O)OCc5c4cc4n(c5=O)Cc5c-4nc4ccccc4c5CC)C(C)C)cc3)c2)c1 [Compound A3]	50000 to 150000	0.05 to 0.5	10 to 15	0.01 to 0.1								
CCCNC(=O)Nc1cccc(S(=O)(=O)Nc2cccc([C@@H](CC(=O)O)NC(=O)Nc3ccc(NC(=O)NCCN(C)CCN(C)CCN(C)CC(=O)N[C@@H](CC(N)=O)C(=O)N4CCC[C@H]4C(=O)N[C@H](C(=O)O[C@]4(CC)C(=O)OCc5c4cc4n(c5=O)Cc5c-4nc4ccccc4c5CC)C(C)C)cc3)c2)c1.Cl.Cl.Cl [Compound B4b, (4S)-4,11-diethyl-3,14-dioxo-3,4,12,14-tetrahydro-1H-pyrano[3′,4′:6,7]indolizino[1,2-b]quinolin-4-yl N^2-{13-[4-({[(1R)-2-carboxy-1-{3-[({3-[(propylcarbamoyl)amino]phenyl}sulfonyl)amino]phenyl}ethyl]carbamoyl}amino)anilino]-3,6,9-trimethyl-13-oxo-12-aza-3,6,9-triazoniatridecan-1-oyl}-L-asparaginyl-L-prolyl-L-valinate trichloride]	1000 to 10000	0.5 to 5	5 to 10	> 0.1	10 to 100	0.1 to 1	10 to 100	0.1 to 1	10 to 100	0.1 to 1	10 to 100	0.01 to 0.1
CCCNC(=O)Nc1cccc(S(=O)(=O)Nc2cccc([C@@H](CC(=O)O)NC(=O)Nc3ccc(NC(=O)NCCOCCOCCOCCC(=O)N[C@@H](CCCCNC(=O)CCCC(=O)N(C)CC(=O)N(C)CC(=O)N(C)CC(=O)N(C)CC(=O)O)C(=O)NCCOCCOCCOCCC(=O)N[C@@H](CC(=O)O)C(=O)N4CCC[C@H]4C(=O)N[C@H](C(=O)O[C@]4(CC)C(=O)OCc5c4cc4n(c5=O)Cc5c-4nc4ccccc4c5CC)C(C)C)cc3)c2)c1 [Compound E3] (I: {X1-CO-PEG3}-K[PEG3]DPV-{Camptothecin(7-Et)} / II: [Sar][Sar][Sar][Sar]-OH; linker I:1-II:N via Glutaryl)	10000 to 50000	0.5 to 5	5 to 10	> 0.1								
CCCNC(=O)Nc1cccc(S(=O)(=O)Nc2cccc([C@@H](CC(=O)O)NC(=O)Nc3ccc(NC(=O)NCCOCCOCCOCCC(=O)N[C@@H](CC(=O)OCCCCN(C)C)C(=O)N4CCC[C@H]4C(=O)N[C@H](C(=O)O[C@]4(CC)C(=O)OCc5c4cc4n(c5=O)Cc5c-4nc4ccccc4c5CC)C(C)C)cc3)c2)c1 [Compound C6, sodium (3R)-3-[({4-[({(10S)-10-[(2S)-2-{[(2S)-1-{[(4S)-4,11-diethyl-3,14-dioxo-3,4,12,14-tetrahydro-1H-pyrano[3′,4′:6,7]indolizino[1,2-b]quinolin-4-yl]oxy}-3-methyl-1-oxobutan-2-yl]carbamoyl}pyrrolidine-1-carbonyl]-2-methyl-8,12-dioxo-7,15,18,21-tetraoxa-2,11-diazatricosan-23-yl}carbamoyl)amino]phenyl}carbamoyl)amino]-3-[3-({3-[(propylcarbamoyl)amino]benzene-1-sulfonyl}amino)phenyl]propanoate]					10 to 100	0.1 to 1	10 to 100	0.1 to 1	10 to 100	0.1 to 1	10 to 100	0.01 to 0.1
CCCNC(=O)Nc1cccc(S(=O)(=O)Nc2cccc([C@@H](CC(=O)O)NC(=O)Nc3ccc(NC(=O)NCCCCN(C)CCN(C)CCN(C)CC(=O)N[C@@H](CCCCNC(=O)CN(C)CCN(C)CCN(C)CCNC(=O)Nc4ccc(NC(=O)N[C@H](CC(=O)O)c5cccc(NS(=O)(=O)c6cccc(NC(=O)NCCC)c6)c5)cc4)C(=O)NCCN(C)CCN(C)CCN(C)CC(=O)N[C@@H](CC(N)=O)C(=O)N4CCC[C@H]4C(=O)N[C@H](C(=O)O[C@]4(CC)C(=O)OCc5c4cc4n(c5=O)Cc5c-4nc4ccccc4c5CC)C(C)C)cc3)c2)c1 [Compound A7]					1.1 to 10	0.1 to 1	10 to 100	0.1 to 1	10 to 100	0.1 to 1	1.1 to 10	0.1 to 1
